Measured values from patent US10392428B2, “GLP-1 derivatives and uses thereof” (Novo Nordisk A/S, priority 2014, dated 2019).

Assays:
human GLP-1 receptor [1] = target: T1, human GLP-1 receptor (Homo sapiens, UniProt P43220); experiment: GLP-1 receptor binding: competitive binding assay (125I-GLP-1, SPA) on isolated membranes at low and high HSA; details: low HSA (max. 0.001% final assay concentration); read-out: Low HSA IC50
T1 construct: expressed in transfected cells; host or cells: membrane preparation from BHK cells, clone FCW467-12A (parent line BHKTS13)
T1 sequence (P43220 24-463): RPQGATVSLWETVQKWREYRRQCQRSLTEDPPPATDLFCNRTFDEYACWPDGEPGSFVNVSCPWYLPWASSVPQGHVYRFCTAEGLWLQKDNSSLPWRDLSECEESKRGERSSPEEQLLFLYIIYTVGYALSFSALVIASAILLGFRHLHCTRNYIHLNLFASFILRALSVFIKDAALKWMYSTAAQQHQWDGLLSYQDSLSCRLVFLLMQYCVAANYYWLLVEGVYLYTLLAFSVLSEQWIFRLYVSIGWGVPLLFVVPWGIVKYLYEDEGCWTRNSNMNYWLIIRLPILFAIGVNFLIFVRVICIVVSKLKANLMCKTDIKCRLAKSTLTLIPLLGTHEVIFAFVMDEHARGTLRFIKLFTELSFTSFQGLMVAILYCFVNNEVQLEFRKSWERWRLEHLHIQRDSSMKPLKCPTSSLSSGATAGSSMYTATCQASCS
Protocol: The purpose of this example is to test the receptor binding of the GLP-1 derivatives in vitro. The receptor binding is a measure of affinity of a derivative for the human GLP-1 receptor.
Each derivative is added in a series of concentrations to isolated membranes containing the human GLP-1 receptor and displacement of the labelled ligand is monitored. The receptor binding is reported as the concentration at which half of the labelled ligand is displaced from the receptor, the IC50 value.
Buffer 1 consisted of 20 mM Na-HEPES plus 10 mM EDTA and pH was adjusted to 7.4. Buffer 2 consisted of 20 mM Na-HEPES plus 0.1 mM EDTA and pH was adjusted to 7.4. Assay buffer consisted of 50 mM HEPES supplemented with 5 mM EGTA, 5 mM MgCl2, 0.005% Tween 20 and pH was adjusted to 7.4. An 8% albumin stock consisted of HSA dissolved at 8% (w/v) in assay buffer. An 0.02% albumin stock consisted of HSA dissolved at 0.02% (w/v) in assay buffer.
The cells express the human GLP-1 receptor.
The cells were grown at 5% CO2 in DMEM, 10% fetal calf serum, 1% Pen/Strep (Penicillin/Streptomycin) and 1.0 mg/ml of the selection marker G418.
To make a membrane preparation the cells were grown to approximately 80% confluence. The cells were washed twice in phosphate-buffered saline and harvested. The cells were pelleted using a brief centrifugation and the cell pellet was kept on ice. […] The homogenate was centrifuged for 15 minutes. The pellet was re-suspended (homogenised) in 10 ml buffer 2 and centrifuged. This step was repeated once more. The resulting pellet was re-suspended in buffer 2 and the protein concentration was determined. The membranes were aliquoted and stored at minus 80° C.
For the receptor binding assay in the presence of low HSA (0.005%) 50 μl of the assay buffer was added to each well of an assay plate.
For the receptor binding assay in the presence of high HSA (2%) 50 μl of the 8% albumin stock was added to each well of an assay plate.
Cell membrane aliquots were thawed and diluted to their working concentration. Fifty μl were added to each well in the assay plate.
WGA SPA beads were suspended in assay buffer at 20 mg/ml. The suspension was diluted to 10 mg/ml in assay buffer just prior to addition to the assay plate. Fifty μl were added to each well in the assay plate.
A 25 μl aliquot was reserved for measuring total counts/well.
The assay plate was incubated for 2 h at 30° C.
The assay plate was centrifuged for 10 min.
The assay plate was read in a Packard TopCount NXT instrument.
The data from the TopCount instrument were transferred to Graph Pad Prism software. Individual replicates were analysed using non-linear regression. IC50 values were calculated by the software and reported in nM. The reported values are averages of all of the measured values for each compound.

[2] = system: obese, diabetic mouse model (db/db mice); experiment: Pharmacodynamic study in db/db mice: acute effect on blood glucose and body weight; format: in vivo
Protocol: The purpose of the study is to verify the acute effect of the GLP-1 derivatives on blood glucose (BG) and body weight (BW) in a diabetic setting.
The GLP-1 derivatives of Examples 2-4 and 6-10 were tested in a single-dose study in an obese, diabetic mouse model (db/db mice) as described in the following.
Six db/db mice per compound to be tested (from Taconic, Denmark), fed from birth with the diet NIH31 (NIH 31M Rodent Diet, commercially available from Taconic Farms, Inc., US, see www.taconic.com), were enrolled for the study at the age of approximately 10 weeks. At arrival to the animal facility the mice were given free access to standard chow (e.g. Altromin 1324, Brogaarden, Denmark) and tap water and kept at 24° C. After 1-2 weeks of acclimatisation, the basal blood glucose was assessed twice on two consecutive days (i.e. at 9 am). The mice were allocated to treatment groups based on matching blood glucose levels and body weights. […]
On the day of dosing, blood glucose was assessed at time −½ h (8.30 am), the mice were weighed after this. […] On the day of dosing, blood glucose was assessed at times 1, 2, 4 and 8 h (10 am, 11 am, 1 pm and 5 pm) after dosing.
On the following days, the blood glucose was assessed at time 24 h, 48 h, 72 h, and 96 h (all Example compounds), and for the GLP-1 derivatives of Examples […] blood glucose was further assessed daily up to 240 h after dosing. […]
Samples for the measurement of blood glucose were obtained from the tail tip capillary of conscious mice. […] The glucose concentration was measured using the glucose oxidase method (glucose analyser Biosen 5040, EKF Diagnostic, GmbH, Germany). […]
The data are presented as percent change in blood glucose or body weight measured at the 48 h time points. For example, the percent change in blood glucose level at 48 h for each individual is calculated as follows: [[(blood glucose level at 48 h)−(basal blood glucose level)]/(basal blood glucose level)]×100%], where basal blood glucose level refers to the level before the administration of any treatment−and vice versa for the body weight change. […]

human GLP-1 receptor [3] = target: T1, human GLP-1 receptor; experiment: In vitro potency: CRE luciferase reporter gene assay in BHK cells expressing the human GLP-1 receptor; format: cell-based; details: whole cell reporter gene assay, 3 h incubation, average of at least two replicates
Protocol: The purpose of this example is to test the activity, or potency, of the GLP-1 derivatives in vitro. The in vitro potency is the measure of human GLP-1 receptor activation in a whole cell assay.
In vitro potency was determined by measuring the response of the human GLP-1 receptor in a reporter gene assay. The assay was performed in a stably transfected BHK cell line that expresses the human GLP-1 receptor and contains the DNA for the cAMP response element (CRE) coupled to a promoter and the gene for firefly luciferase (CRE luciferase). When the human GLP-1 receptor is activated it results in the production of cAMP, which in turn results in the luciferase protein being expressed. When assay incubation is completed the luciferase substrate (luciferin) is added and the enzyme converts luciferin to oxyluciferin to produce bioluminescence. The luminescence is measured as the readout for the assay.
The cells were cultured at 5% CO2 in cell culture medium. They were aliquoted and stored in liquid nitrogen. Before each assay an aliquot was taken up and washed twice in PBS before being suspended at the desired concentration in the assay specific buffer.
Assay medium consisted of DMEM w/o phenol red, 10 mM Hepes and 1χ Glutamax. The assay buffer consisted of 2% ovalbumin and 0.2% Pluronic F-68 in assay medium.
1) Cell stocks were thawed in a 37° C. water bath.
2) Cells were washed three times in PBS.
3) Cells were counted and adjusted to 5×10^3 cells/50 μl (1×10^5 cells/ml) in assay medium. A 50 μl aliquot of cells was transferred to each well in the assay plate.
4) Stocks of the test compounds and reference compounds were diluted to a concentration of 0.2 μM in assay buffer. […] 8) A 100 μl aliquot of steadylite plus reagent was added to each well of the assay plate. […] 10) Each assay plate was read in a BioTek Synergy 2 Multi-Mode Reader.
The data from the BioTek Synergy 2 Multi-Mode Reader were transferred to GraphPad Prism software. […]
A minimum of two replicates was measured for each sample. The reported EC50 values are averages of all of the measured values for each compound.

[4] = single s.c. dose 10 nmol/kg, 48 h vs basal

CC[C@H](C)[C@H](NC(=O)[C@H](Cc1ccccc1)NC(=O)[C@H](CCC(=O)O)NC(=O)[C@H](CCCNC(=N)N)NC(=O)[C@H](C)NC(=O)[C@H](C)NC(=O)[C@H](CCC(N)=O)NC(=O)[C@H](CCC(=O)O)NC(=O)[C@H](CCC(=O)O)NC(=O)[C@H](CC(C)C)NC(=O)[C@H](Cc1ccc(O)cc1)NC(=O)[C@H](CO)NC(=O)[C@H](CO)NC(=O)[C@@H](NC(=O)[C@H](CC(=O)O)NC(=O)[C@H](CO)NC(=O)[C@@H](NC(=O)[C@H](Cc1ccccc1)NC(=O)[C@@H](NC(=O)CNC(=O)[C@H](CCC(=O)O)NC(=O)C(C)(C)NC(=O)[C@@H](N)Cc1c[nH]cn1)[C@@H](C)O)[C@@H](C)O)C(C)C)C(=O)N[C@@H](C)C(=O)N[C@@H](Cc1c[nH]c2ccccc12)C(=O)N[C@@H](CC(C)C)C(=O)N[C@H](C(=O)N[C@@H](CCCNC(=N)N)C(=O)NCC(=O)N[C@@H](CCCNC(=N)N)C(=O)N[C@@H](CCCCNC(=O)[C@@H](N)CCCCNC(=O)[C@@H](N)CCCCNC(=O)[C@@H](N)CCCCNC(=O)[C@@H](N)CCCCNC(=O)[C@H](CCCCNC(=O)CC[C@H](NC(=O)[C@H]1CC[C@H](CNC(=O)CCCCCCCCCCCCCCCCCCC(=O)O)CC1)C(=O)O)NC(=O)CC[C@H](NC(=O)[C@H]1CC[C@H](CNC(=O)CCCCCCCCCCCCCCCCCCC(=O)O)CC1)C(=O)O)C(=O)O)C(C)C [Example 10, N{Epsilon-37}-[(2S)-2-amino-6-[[(2S)-2-amino-6-[[(2S)-2-amino-6-[[(2S)-2-amino-6-[[(2S)-2,6-bis[[(4S)-4-carboxy-4-[[4-[(19-carboxynonadecanoylamino)methyl]cyclohexanecarbonyl]amino]butanoyl]amino]hexanoyl]amino]hexanoyl]amino]hexanoyl]amino]hexanoyl]amino]hexanoyl]-[Aib8,Glu22,Arg26,Arg34,Lys37]-GLP-1-(7-37)-peptide]
IC50 (human GLP-1 receptor [1]): 19 nM
effect on BG ([2]; after 48 h, single s.c. injection of either 3, 10 or 30 nmol/kg): not as pronounced
% change in blood glucose [2, 4]: −3%
% change in body weight [2, 4]: −3%
EC50 (human GLP-1 receptor [3]): 0.15 nM
